How the values were obtained:
HM74A = molecular target: T1, HM74A (Homo sapiens, UniProt Q8TDS4); assay: Secondary fluorescent calcium indicator assay (FLIPR); type: cell-based; settings: stable transfected HEK-293 cells expressing HM74A and chimeric G protein Gqi9; % stimulation of maximal nicotinic acid response (100 μM)
T1 construct: expressed in transfected cells; host or cells: HEK-293, stably transfected with pcDNA3.1 vectors
Protocol: Secondary Fluorescent Calcium Indicator Assay (FLIPR)
HEK-293 cells were grown in tissue culture medium (DMEM/Nut mix F12 Medium with Glutamax I (Invitrogen), containing 10% FBS) at 37° C. in a 5% CO2 atmosphere. These cells were cultured in 6-well dishes at 3×10^5 cells/well and double transfected with DNA vectors (pcDNA3.1, Invitrogen) expressing either HM74A or HM74 and the chimeric G protein Gqi9. Two days after transfection the wells were combined and plated in 150 cm^2 flasks, in the presence of 50 μg/ml Hygromycin (Invitrogen) and 500 μg/ml Geneticin (Gibco). Fourteen days after plating, colonies were picked, expanded and analyzed for expression using a functional assay (FLIPR). Stable transfected HEK-293 cells expressing either HM74A or HM74 and the chimeric G protein Gqi9 were plated at 50,000 cells/well in black 96-well plates with clear bottom (Costar) and cultured to confluency overnight in growth media (DMEM/Nut mix F12 Medium with Glutamax I (Invitrogen), containing 10% FBS) at 37° C. in a humidified cell incubator containing 5% CO2. Growth media was aspirated and replaced with 100 μl of 1×FLIPR Calcium Assay Dye (Molecular Devices) in Hank's balanced salt solution (HBSS) containing 10 mM HEPES, and […] probenecid (Sigma), for 1 hour at 37° C. Cell plates were transferred to a FLIPR unit (Molecular Devices), and 50 μl of 3× compound dilution were added. Fluorescence emissions were measured and the effects of compounds were expressed as % stimulation of maximal nicotinic acid response (100 μM). Sigmoidal curves were fitted using the XLfit3 program (ID Business Solutions Ltd. UK) and EC50 values determined.

T1 sequence (Q8TDS4 whole entry): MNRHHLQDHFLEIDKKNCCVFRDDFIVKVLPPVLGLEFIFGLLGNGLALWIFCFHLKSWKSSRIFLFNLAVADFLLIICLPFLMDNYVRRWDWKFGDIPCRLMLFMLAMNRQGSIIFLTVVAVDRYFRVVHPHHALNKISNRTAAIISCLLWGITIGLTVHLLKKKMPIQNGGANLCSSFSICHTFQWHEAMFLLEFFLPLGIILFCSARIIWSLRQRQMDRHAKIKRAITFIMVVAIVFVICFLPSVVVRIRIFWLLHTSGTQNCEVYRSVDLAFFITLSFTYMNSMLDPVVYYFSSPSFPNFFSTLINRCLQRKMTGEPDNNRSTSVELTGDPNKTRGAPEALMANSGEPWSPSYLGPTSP

Row | EC50 (HM74A) | melting point | Compound
1 | 101 nM | – | O=C(Nc1ccccc1C(=O)O)c1ccc(Oc2cc(F)ccc2F)cc1 [Example 29, 2-[4-(2,5-Difluoro-phenoxy)-benzoylamino]-benzoic acid]
2 | 529 nM | – | O=C(Nc1ccccc1C(=O)O)c1ccc(Oc2cccc(Cl)c2)cc1 [Example 17, 2-[4-(3-Chloro-phenoxy)-benzoylamino]-benzoic acid]
3 | – | 123 °C | Cc1cc(C(=O)Nc2ccccc2C(=O)O)ccc1Oc1ccccc1 [Example 30, 2-(3-Methyl-4-phenoxy-benzoylamino)-benzoic acid]

Row | Compound | EC50 (HM74A) | melting point
4 | 2-[4-(4-Fluoro-phenoxy)-benzoylamino]-benzoic acid [Example 2] | 1100 nM | –

Source: patent publication US7989657B2, “Anthranilic acid derivatives” (Hoffmann-La Roche Inc., priority 2005, dated 2011)
